The source of these data is the supplement of paper PMC11061612.

Assay in all cases: combination Emax (second highest fraction inhibited in the dose matrix, 72 h); higher = more inhibition; extreme values may be limits of the assay
The test system of one assay is 8-MG-BA (Glioblastoma). The method in brief: (§1)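 After 24 hours at 37°C and 5% CO2 in 1536-well plates, cells in DMEM/F12 or RPMI plus 10% FBS received two-drug dose matrices for 72 hours. Viability came from CellTiter-Glo 2.0 luminescence and was scaled as inhibition, anchored at 0 by vehicle wells and at 1 by blank wells. Combination Emax is taken as the second-highest inhibition in the matrix, and Bliss excess as the observed combination effect less EA + EB − EA·EB, with EA and EB the single-agent effects.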

In the next assay the test system is A498 (Kidney Carcinoma). The method in brief:
as §1

The test system of assay [1] is A549 (Lung Adenocarcinoma). In outline: as §1
For assay [2], the system named is BICR22 (Oral Cavity Carcinoma). In outline: as §1
Assay [3] deals with CAL-29 (Bladder Carcinoma). The method in brief: as §1
In assay [4] the test system is CAPAN-2 (Pancreatic Carcinoma). In outline: as §1
Assay [5] relates to CCK-81 (Colorectal Carcinoma). In outline:
as §1

In assay [6] the test system is COR-L311 (Small Cell Lung Carcinoma). In outline: as §1
The next assay relates to GI-ME-N (Neuroblastoma). The method in brief:
as §1

In another assay the test system is Hs-445 (Non-Cancerous). The method in brief: as §1
The next assay deals with IGR-37 (Melanoma). In outline:
as §1

Assay [7] deals with JSC-1 (B-Cell Non-Hodgkin's Lymphoma). The method in brief: as §1
Assay [8] has as its system KARPAS-422 (B-Cell Non-Hodgkin's Lymphoma). The method in brief:
as §1

In the next assay the test system is LN-405 (Glioblastoma). The method in brief:
as §1

Assay [9] has as its system MDST8 (Colorectal Carcinoma). In outline:
as §1

Assay [10] relates to NCI-H1581 (Non-Small Cell Lung Carcinoma). The method in brief: as §1
For the next assay, the system named is PA-1 (Ovarian Carcinoma). In outline: as §1
The test system of assay [11] is PANC-10-05 (Pancreatic Carcinoma). In outline:
as §1

For assay [12], the system named is TT2609-C02 (Thyroid Gland Carcinoma). The method in brief: as §1
A further assay has as its system U-2-OS (Osteosarcoma). In outline: as §1

Consider `COc1nnc2ccc(N3CCC(c4ccc(OCCN5CCN(C)C(=O)[C@H]5C)cc4)CC3)nn12` [AZD5153] + CCN(CCO)CCCOc1ccc2c(Nc3cc(CC(=O)Nc4cccc(F)c4)[nH]n3)ncnc2c1 [AZD2811] (first compound max 1 µM, 7x7, partner max 1 µM), for which the “combination Emax” value in the assay on 8-MG-BA (Glioblastoma) was determined as 0.74; with A498 (Kidney Carcinoma) it was 0.459; in [1], 0.834; in assay [2], 0.463; in [3] it was 0.372; in [4], 0.296. The “combination Emax” value in assay [5] is 0.858; in assay [6], 0.936; with GI-ME-N (Neuroblastoma) it was 0.341; in the assay with Hs-445 (Non-Cancerous) it was 0.509; in the assay on IGR-37 (Melanoma), 0.597; in assay [7] it was 0.775. For the same molecule, the “combination Emax” value in assay [8] stood at 0.676; in the assay with LN-405 (Glioblastoma), 0.515; in assay [9], 0.466; in [10], 0.437; in the assay on PA-1 (Ovarian Carcinoma) it was 0.904; in [11] it was 0.554. Besides, the results for the “combination Emax” value (in [12]; with U-2-OS (Osteosarcoma)) were 0.492 and 0.405, respectively.
Take `COc1nnc2ccc(N3CCC(c4ccc(OCCN5CCN(C)C(=O)[C@H]5C)cc4)CC3)nn12` [AZD5153] + C[C@@H]1COCCN1C2=NC(=NC(=C2)C3(CC3)[S@](=N)(=O)C)C4=C5C=CNC5=NC=C4 [AZD6738] (first compound max 1 µM, 7x7, partner max 10 µM): the “combination Emax” value in the assay with 8-MG-BA (Glioblastoma) was 0.837; in the assay on A498 (Kidney Carcinoma), 0.65; in assay [1], 0.912; in [2] it was 0.709; in assay [3], 0.7; in assay [4] it was 0.379. Further, the “combination Emax” value stood at 0.95 in assay [5]; 0.95 in assay [6]; 0.464 with GI-ME-N (Neuroblastoma); 0.727 with Hs-445 (Non-Cancerous); 0.757 with IGR-37 (Melanoma); 0.901 in assay [7]. In addition, the “combination Emax” value came to 0.887 in [8]; 0.53 in the assay with LN-405 (Glioblastoma); 0.812 in assay [9]; 0.714 in assay [10]; 0.973 in the assay with PA-1 (Ovarian Carcinoma); 0.682 in [11]. Further, the “combination Emax” value in [12] is 0.521; in the assay on U-2-OS (Osteosarcoma), 0.589.
With `COc1nnc2ccc(N3CCC(c4ccc(OCCN5CCN(C)C(=O)[C@H]5C)cc4)CC3)nn12` [AZD5153] + Cc1c2c(nn1C)CSCc1cc(n(C)n1)CSc1cc(c3ccccc3c1)OCCCc1c(C(=O)O)n(C)c3c-2c(Cl)ccc13 [AZD5991] (first compound max 1 µM, 7x7, partner max 1 µM), the “combination Emax” value was 0.94 in the assay on 8-MG-BA (Glioblastoma); 0.529 in the assay on A498 (Kidney Carcinoma); 0.821 in assay [1]; 0.901 in assay [2]; 0.355 in assay [3]; 0.296 in assay [4]. Besides, the “combination Emax” value came out at 0.916 in assay [5]; 0.971 in assay [6]; 0.377 in the assay on GI-ME-N (Neuroblastoma); 0.618 with Hs-445 (Non-Cancerous); 0.949 in the assay on IGR-37 (Melanoma); 1 in [7]. Besides, the “combination Emax” value in [8] is 0.991; in the assay on LN-405 (Glioblastoma), 0.574; in assay [9], 0.355; in assay [10] it was 0.983; in the assay with PA-1 (Ovarian Carcinoma), 1; in assay [11] it was 0.515. Also, the “combination Emax” value in assay [12] was found to be 0.454; with U-2-OS (Osteosarcoma), 0.418.
Take `COc1nnc2ccc(N3CCC(c4ccc(OCCN5CCN(C)C(=O)[C@H]5C)cc4)CC3)nn12` [AZD5153] + Cn1cnc2c(F)c(Nc3ccc(Br)cc3Cl)c(C(=O)NOCCO)cc21 [Selumetinib] (first compound max 1 µM, 7x7, partner max 10 µM): the “combination Emax” value was determined as 0.796 in the assay on 8-MG-BA (Glioblastoma); 0.867 in the assay with A498 (Kidney Carcinoma); 0.917 in assay [1]; 0.564 in assay [2]; 0.595 in assay [3]; 0.452 in assay [4]. For the same molecule, the “combination Emax” value in [5] was determined as 1; in assay [6] it was 0.847; in the assay with GI-ME-N (Neuroblastoma), 0.349; in the assay on Hs-445 (Non-Cancerous), 0.555; in the assay on IGR-37 (Melanoma), 1; in assay [7], 0.805. The “combination Emax” value in assay [8] turned out to be 0.68; in the assay with LN-405 (Glioblastoma), 0.332; in assay [9], 0.826; in [10] it was 0.599; in the assay with PA-1 (Ovarian Carcinoma), 0.91; in assay [11], 0.633. For the same molecule, the entries for the “combination Emax” value (in assay [12]; in the assay on U-2-OS (Osteosarcoma)) were 0.652 and 0.628, respectively.
As to `Cc1c2c(nn1C)CSCc1cc(n(C)n1)CSc1cc(c3ccccc3c1)OCCCc1c(C(=O)O)n(C)c3c-2c(Cl)ccc13` [AZD5991] + C1CN(CCC1(C(=O)N[C@@H](CCO)C2=CC=C(C=C2)Cl)N)C3=NC=NC4=C3C=CN4 [Capivasertib] (first compound max 1 µM, 7x7, partner max 3 µM), the “combination Emax” value in the assay with 8-MG-BA (Glioblastoma) worked out at 0.85; in the assay with A498 (Kidney Carcinoma) it was 0.561; in [1], 0.379; in assay [2] it was 0.689; in [3] it was 0.342; in assay [4], 0.227. Further, the “combination Emax” value in [5] was 0.918; in assay [6], 0.718; in the assay with GI-ME-N (Neuroblastoma), 0.27; in the assay with Hs-445 (Non-Cancerous), 0.988; with IGR-37 (Melanoma), 0.207; in assay [7] it was 1. Moreover, the “combination Emax” value in [8] worked out at 0.994; in the assay with LN-405 (Glioblastoma), 0.404; in [9] it was 0.269; in [10], 1; with PA-1 (Ovarian Carcinoma), 0.947; in assay [11], 0.357. Moreover, the results for the “combination Emax” value (in assay [12]; with U-2-OS (Osteosarcoma)) were 0.227 and 0.219, respectively.
As to `Cc1c2c(nn1C)CSCc1cc(n(C)n1)CSc1cc(c3ccccc3c1)OCCCc1c(C(=O)O)n(C)c3c-2c(Cl)ccc13` [AZD5991] + C=CCn1c(=O)c2cnc(Nc3ccc(N4CCN(C)CC4)cc3)nc2n1-c1cccc(C(C)(C)O)n1 [AZD1775] (first compound max 1 µM, partner max 1 µM), the “combination Emax” value with 8-MG-BA (Glioblastoma) stood at 0.906; in the assay on A498 (Kidney Carcinoma) it was 0.602; in [1], 0.425; in assay [2], 0.717; in assay [3] it was 0.919; in [4], 0.428. Moreover, the “combination Emax” value in [5] was found to be 0.928; in assay [6] it was 0.812; in the assay with GI-ME-N (Neuroblastoma), 0.532; in the assay with Hs-445 (Non-Cancerous), 1; in the assay with IGR-37 (Melanoma) it was 0.768; in assay [7], 1. In addition, the “combination Emax” value came out at 0.965 in assay [8]; 0.55 in the assay on LN-405 (Glioblastoma); 0.597 in assay [9]; 1 in [10]; 0.937 in the assay on PA-1 (Ovarian Carcinoma); 0.573 in [11]. In addition, the “combination Emax” value in [12] turned out to be 0.617; in the assay with U-2-OS (Osteosarcoma), 0.809.
